# Measured values from patent publication US9139577B2, “Sulfoximine substituted quinazolines for pharmaceutical compositions” (Boehringer Ingelheim International GmbH, priority 2013, dated 2015).
# pIC50: −log10 of the molar value.
# Experiments:
# MNK2a = MNK2a (Homo sapiens (Human), UniProt Q9HBH9); experiment: MNK2a in vitro kinase assay (Assay 2), ADP-Glo; assay type: biochemical; settings: read-out: MNK2 IC50
# MNK1 = MNK1 (Homo sapiens (Human), UniProt Q9BUB5); experiment: MNK1 in vitro kinase assay (Assay 3), Z'-LYTE; assay type: biochemical; settings: for inhibition at 1 µM: compound concentration of 1 μM, read-out: MNK1 % INH
# Chain of MNK1 (Q9BUB5 other isoform, or with tags, fused parts or gaps): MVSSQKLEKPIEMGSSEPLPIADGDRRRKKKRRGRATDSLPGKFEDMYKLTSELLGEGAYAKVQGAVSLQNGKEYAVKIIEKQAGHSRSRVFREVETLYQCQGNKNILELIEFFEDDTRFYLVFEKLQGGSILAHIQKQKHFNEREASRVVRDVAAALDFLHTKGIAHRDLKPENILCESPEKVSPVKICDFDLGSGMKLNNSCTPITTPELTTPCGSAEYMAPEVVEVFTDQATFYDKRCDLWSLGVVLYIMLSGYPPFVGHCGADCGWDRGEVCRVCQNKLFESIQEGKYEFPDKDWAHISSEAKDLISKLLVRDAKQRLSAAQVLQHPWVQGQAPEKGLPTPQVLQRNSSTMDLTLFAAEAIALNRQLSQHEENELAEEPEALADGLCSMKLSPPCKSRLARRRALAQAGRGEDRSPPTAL
# Source text: C. MNK1 In vitro Kinase Assay (Assay 3)
# MNK1 Data can be obtained from the MNK1 Z′-LYTE® assay. The MNK1 Z′-LYTE® screening protocol and assay conditions are also described on www.invitrogen.com.
# The assay is described as follows:
# The Z′-LYTE® biochemical assay employs a fluorescence-based, coupled-enzyme format and is based on the differential sensitivity of phosphorylated and non-phosphorylated peptides to proteolytic cleavage. The peptide substrate is labeled with two fluorophores—one at each end—that make up a FRET pair.
# In the primary reaction, the kinase transfers the gamma-phosphate of ATP to a single tyrosine, serine or threonine residue in a synthetic FRET-peptide. In the secondary reaction, a site-specific protease recognizes and cleaves non-phosphorylated FRET-peptides. Phosphorylation of FRET-peptides suppresses cleavage by the Development Reagent. Cleavage disrupts FRET between the donor (i.e., coumarin) and acceptor (i.e., fluorescein) fluorophores on the FRET-peptide, whereas uncleaved, phosphorylated FRET-peptides maintain FRET. A ratiometric method, which calculates the ratio (the Emission Ratio) of donor emission to acceptor emission after excitation of the donor fluorophore at 400 nm, is used to quantitate reaction progress, as shown in the equation below.
# ASSAY SETUP: The inhibition of kinase activity of MNK1a was assessed using pre-activated GST-MNK1a. The 2×MKNK1 (MNK1) mixture is prepared in 50 mM HEPES pH 7.5, 0.01% BRIJ-35, 10 mM MgCl2, 4 mM MnCl2, 1 mM EGTA, 2 mM DTT.
# The Test Compounds are screened in 1% DMSO (final) in the well.
# All Peptide/Kinase Mixtures are diluted to a 2× working concentration in the MNK1 Kinase Buffer.
# All ATP Solutions are diluted to a 4× working concentration in Kinase Buffer (50 mM HEPES pH 7.5, 0.01% BRIJ-35, 10 mM MgCl2, 1 mM EGTA).
# Development Reagent Solution:
# The Development Reagent is diluted in Development Buffer
# 1. 2.5 μL—4× Test Compound
# 2. 5 μL—2× Peptide/Kinase Mixture
# 5. 60-minute Kinase Reaction incubation at room temperature
# 6. 5 μl—Development Reagent Solution
# 8. 60-minute Development Reaction incubation at room temperature
# 9. Read on fluorescence plate reader and analyze the data
# The following equations are used for each set of data points: […]
# Correction for Background Fluorescence: FlSample-FlTCFl Ctl
# % Phosphorylation (% Phos): 1−((Emission Ratio×F100%)−C100%)/((C0%−C100%)+[Emission Ratio×(F100%−F0%)])*100%
# % Inhibition: 1−(% PhosSample/% Phos0% Inhibition Ctl)*100
# Fl=Fluorescence Intensity
# C100%=Average Coumarin emission signal of the 100% Phos. Control
# C0%=Average Coumarin emission signal of the 0% Phos. Control
# F100%=Average Fluorescein emission signal of the 100% Phos. Control
# F0%=Average Fluorescein emission signal of the 0% Phos. Control
# SelectScreen® Kinase Profiling Service uses XLfit from IDBS.
# Chain of MNK2a (Q9HBH9 whole entry): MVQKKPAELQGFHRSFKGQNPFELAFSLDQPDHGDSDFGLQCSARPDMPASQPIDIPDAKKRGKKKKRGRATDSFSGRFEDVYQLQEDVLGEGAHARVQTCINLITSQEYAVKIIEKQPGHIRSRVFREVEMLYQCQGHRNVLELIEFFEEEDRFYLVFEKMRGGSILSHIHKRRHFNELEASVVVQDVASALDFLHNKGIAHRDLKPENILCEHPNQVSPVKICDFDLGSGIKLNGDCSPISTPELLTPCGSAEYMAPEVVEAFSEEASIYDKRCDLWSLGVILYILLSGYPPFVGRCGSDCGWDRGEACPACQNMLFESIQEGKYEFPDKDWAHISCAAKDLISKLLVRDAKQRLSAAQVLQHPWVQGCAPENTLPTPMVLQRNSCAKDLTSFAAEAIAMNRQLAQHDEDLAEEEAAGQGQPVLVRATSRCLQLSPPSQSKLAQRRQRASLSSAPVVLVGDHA
Structure (SMILES),pIC50 (MNK2a),inhibition at 1 µM (MNK1),pIC50 (MNK1)
Cc1cc(N=S(C)(C)=O)cc2ncnc(Nc3ccc(F)cc3OCC3CCO3)c12 (centres unmarked) [Example 3.013],8.10,88%,
Cc1cc(N=S(C)(C)=O)cc2ncnc(Nc3ccc(F)cc3OCC3(C#N)CCC3)c12 [Example 3.014],8.10,78%,
Cc1cc(N=S(C)(C)=O)cc2ncnc(Nc3ccc(F)cc3OC(C)Cn3ccnc3C)c12 (centres unmarked) [Example 3.015],8.52,45%,
C#CC(C)Oc1cc(F)ccc1Nc1ncnc2cc(N=S(C)(C)=O)cc(C)c12 (centres unmarked) [Example 3.016],8.70,90%,
Cc1cc(N=S(C)(C)=O)cc2ncnc(Nc3ccc(F)cc3O[C@H](C)CN)c12 [Example 3.018],9.00,92%,
Cc1cc(N=S(C)(C)=O)cc2ncnc(Nc3ccc(F)cc3OC(C)CC3CCOCC3)c12 (centres unmarked) [Example 3.019],7.62,48%,
Cc1cc(N=S(C)(C)=O)cc2ncnc(Nc3ccc(F)cc3OC(C)c3ccccn3)c12 (centres unmarked) [Example 3.021],8.70,86%,
CCOC(=O)[C@@H](C)Oc1cc(F)ccc1Nc1ncnc2cc(N=S(C)(C)=O)cc(C)c12 [Example 3.022],8.70,98%,
Cc1cc(N=S(C)(C)=O)cc2ncnc(Nc3ccc(F)cc3OCC(=O)N(C)C)c12 [Example 3.026],8.40,53%,
Cc1cc(N=S(C)(C)=O)cc2ncnc(Nc3ccc(F)cc3OCC3(C(F)(F)F)CC3)c12 [Example 3.027],8.70,98%,
Cc1cc(N=S(C)(C)=O)cc2ncnc(Nc3ccc(F)cc3OC(C)COC3CCOC3)c12 (centres unmarked) [Example 3.028],8.22,92%,
Cc1cc(N=S(C)(C)=O)cc2ncnc(Nc3ccc(F)cc3OCC3(C)COC3)c12 [Example 3.029],7.77,72%,
Cc1cc(N=S(C)(C)=O)cc2ncnc(Nc3ccc(F)cc3OCCC(F)(F)F)c12 [Example 3.031],8.30,,7.12
CCOC(=O)[C@H](C)Oc1cc(F)ccc1Nc1ncnc2cc(N=S(C)(C)=O)cc(C)c12 [Example 3.032],7.80,26%,
Cc1cc(N=S(C)(C)=O)cc2ncnc(Nc3ccc(F)cc3OCC3CCNC(=O)C3)c12 (centres unmarked) [Example 3.033],8.70,56%,
Cc1cc(N=S(C)(C)=O)cc2ncnc(Nc3ccc(F)cc3OC(C)c3nccs3)c12 (centres unmarked) [Example 3.035],7.43,89%,
Cc1cc(N=S(C)(C)=O)cc2ncnc(Nc3ccc(F)cc3OC[C@H]3CCC(=O)N3)c12 [Example 3.038],8.70,86%,
Cc1cc(N=S(C)(C)=O)cc2ncnc(Nc3ccc(F)cc3OCc3ccon3)c12 [Example 3.039],9.00,,7.11
CCC(C)Oc1cc(F)ccc1Nc1ncnc2cc(N=S(C)(C)=O)cc(C)c12 (centres unmarked) [Example 3.042],7.82,78%,
Cc1cc(N=S(C)(C)=O)cc2ncnc(Nc3ccc(F)cc3OC[C@@H]3CCC(=O)N3)c12 [Example 3.043],8.30,82%,
Cc1cc(N=S(C)(C)=O)cc2ncnc(Nc3ccc(F)cc3OCC3COCCO3)c12 (centres unmarked) [Example 3.044],7.20,49%,

Structure (SMILES),pIC50 (MNK2a),inhibition at 1 µM (MNK1),pIC50 (MNK1)
Cc1cc(N=S(C)(C)=O)cc2ncnc(Nc3ccc(F)cc3OCC3CCOCC3)c12 [Example 3.045],8.00,78%,
Cc1cc(N=S(C)(C)=O)cc2ncnc(Nc3ccc(F)cc3OC(C)c3ccncc3)c12 (centres unmarked) [Example 3.046],8.70,97%,
C[C@@H](Oc1cc(F)ccc1Nc1ncnc2cc(N=S3(=O)CCCC3)cc(F)c12)C(=O)NCC(F)(F)F [Example 3.047],9.00,96%,
Cc1cc(N=S(C)(C)=O)cc2ncnc(Nc3ccc(F)cc3OCC3CCOC3)c12 (centres unmarked) [Example 3.048],7.96,88%,
C[C@@H](Oc1cc(F)ccc1Nc1ncnc2cc(N=S(C)(C)=O)cc(F)c12)C(=O)NCC(F)(F)F [Example 3.049],8.70,,7.17
COCC(C)Oc1cc(F)ccc1Nc1ncnc2cc(N=S(C)(C)=O)cc(C)c12 (centres unmarked) [Example 3.050],7.49,87%,
Cc1cc(N=S(C)(C)=O)cc2ncnc(Nc3ccc(F)cc3O[C@H](C)C(=O)NC(C(F)(F)F)C(F)(F)F)c12 [Example 3.054],9.00,58%,7.29
Cc1cc(N=S2(=O)CCCC2)cc2ncnc(Nc3ccc(F)cc3O[C@H](C)C(=O)NCC3CCCO3)c12 (some centres unmarked) [Example 4.001],8.30,97%,
Cc1cc(N=S(C)(C)=O)cc2ncnc(Nc3ccc(F)cc3O[C@H](C)C(=O)N(C)C)c12 [Example 4.002],8.30,54%,
Cc1cc(N=S2(=O)CCCC2)cc2ncnc(Nc3ccc(F)cc3O[C@H](C)C(=O)N(C)C(C)C)c12 [Example 4.003],8.70,96%,
Cc1cc(N=S(C)(C)=O)cc2ncnc(Nc3ccc(F)cc3O[C@H](C)C(=O)N3CCC(O)C3)c12 (some centres unmarked) [Example 4.005],7.55,74%,
Cc1cc(N=S2(=O)CCCC2)cc2ncnc(Nc3ccc(F)cc3O[C@H](C)C(=O)NCC(C)O)c12 (some centres unmarked) [Example 4.008],8.70,97%,
Cc1cc(N=S(C)(C)=O)cc2ncnc(Nc3ccc(F)cc3O[C@H](C)C(=O)NC3COC3)c12 [Example 4.009],8.70,99%,
Cc1cc(N=S2(=O)CCCC2)cc2ncnc(Nc3ccc(F)cc3O[C@H](C)C(=O)N3CCC(O)C3)c12 (some centres unmarked) [Example 4.010],8.40,89%,
Cc1cc(N=S(C)(C)=O)cc2ncnc(Nc3ccc(F)cc3O[C@H](C)C(=O)NCC3CCCO3)c12 (some centres unmarked) [Example 4.011],7.62,86%,
Cc1cc(N=S(C)(C)=O)cc2ncnc(Nc3ccc(F)cc3O[C@H](C)C(=O)N(C)Cc3ccccc3)c12 [Example 4.012],7.47,56%,
Cc1cc(N=S(C)(C)=O)cc2ncnc(Nc3ccc(F)cc3O[C@H](C)C(=O)N(C)CC(C)C)c12 [Example 4.013],8.30,88%,
Cc1cc(N=S2(=O)CCCC2)cc2ncnc(Nc3ccc(F)cc3O[C@H](C)C(=O)NC3CCOCC3)c12 [Example 4.014],8.52,96%,
Cc1cc(N=S2(=O)CCCC2)cc2ncnc(Nc3ccc(F)cc3O[C@H](C)C(=O)NC3CCC3)c12 [Example 4.015],8.70,102%,
Cc1cc(N=S2(=O)CCCC2)cc2ncnc(Nc3ccc(F)cc3O[C@H](C)C(=O)N(C)Cc3ccccc3)c12 [Example 4.017],8.05,73%,
